Source: US12516046B2, “2-oxo-oxazolidine-5-carboxamides as NAV1.8 inhibitors” (Merck Sharp & Dohme LLC, priority 2020, dated 2026)
pIC50: −log10 of the molar value.

target: human Nav1.8 (Homo sapiens (Human), UniProt Q9Y5Y9); experiment: Nav1.8 Qube® Assay (automated 384-well patch-clamp); assay type: cell-based; conditions: human Nav1.8 channels stably expressed in HEK 293 cells
From the text: Qube® Assay Experimental Procedure

human Nav1.8, sequence (Q9Y5Y9 whole entry): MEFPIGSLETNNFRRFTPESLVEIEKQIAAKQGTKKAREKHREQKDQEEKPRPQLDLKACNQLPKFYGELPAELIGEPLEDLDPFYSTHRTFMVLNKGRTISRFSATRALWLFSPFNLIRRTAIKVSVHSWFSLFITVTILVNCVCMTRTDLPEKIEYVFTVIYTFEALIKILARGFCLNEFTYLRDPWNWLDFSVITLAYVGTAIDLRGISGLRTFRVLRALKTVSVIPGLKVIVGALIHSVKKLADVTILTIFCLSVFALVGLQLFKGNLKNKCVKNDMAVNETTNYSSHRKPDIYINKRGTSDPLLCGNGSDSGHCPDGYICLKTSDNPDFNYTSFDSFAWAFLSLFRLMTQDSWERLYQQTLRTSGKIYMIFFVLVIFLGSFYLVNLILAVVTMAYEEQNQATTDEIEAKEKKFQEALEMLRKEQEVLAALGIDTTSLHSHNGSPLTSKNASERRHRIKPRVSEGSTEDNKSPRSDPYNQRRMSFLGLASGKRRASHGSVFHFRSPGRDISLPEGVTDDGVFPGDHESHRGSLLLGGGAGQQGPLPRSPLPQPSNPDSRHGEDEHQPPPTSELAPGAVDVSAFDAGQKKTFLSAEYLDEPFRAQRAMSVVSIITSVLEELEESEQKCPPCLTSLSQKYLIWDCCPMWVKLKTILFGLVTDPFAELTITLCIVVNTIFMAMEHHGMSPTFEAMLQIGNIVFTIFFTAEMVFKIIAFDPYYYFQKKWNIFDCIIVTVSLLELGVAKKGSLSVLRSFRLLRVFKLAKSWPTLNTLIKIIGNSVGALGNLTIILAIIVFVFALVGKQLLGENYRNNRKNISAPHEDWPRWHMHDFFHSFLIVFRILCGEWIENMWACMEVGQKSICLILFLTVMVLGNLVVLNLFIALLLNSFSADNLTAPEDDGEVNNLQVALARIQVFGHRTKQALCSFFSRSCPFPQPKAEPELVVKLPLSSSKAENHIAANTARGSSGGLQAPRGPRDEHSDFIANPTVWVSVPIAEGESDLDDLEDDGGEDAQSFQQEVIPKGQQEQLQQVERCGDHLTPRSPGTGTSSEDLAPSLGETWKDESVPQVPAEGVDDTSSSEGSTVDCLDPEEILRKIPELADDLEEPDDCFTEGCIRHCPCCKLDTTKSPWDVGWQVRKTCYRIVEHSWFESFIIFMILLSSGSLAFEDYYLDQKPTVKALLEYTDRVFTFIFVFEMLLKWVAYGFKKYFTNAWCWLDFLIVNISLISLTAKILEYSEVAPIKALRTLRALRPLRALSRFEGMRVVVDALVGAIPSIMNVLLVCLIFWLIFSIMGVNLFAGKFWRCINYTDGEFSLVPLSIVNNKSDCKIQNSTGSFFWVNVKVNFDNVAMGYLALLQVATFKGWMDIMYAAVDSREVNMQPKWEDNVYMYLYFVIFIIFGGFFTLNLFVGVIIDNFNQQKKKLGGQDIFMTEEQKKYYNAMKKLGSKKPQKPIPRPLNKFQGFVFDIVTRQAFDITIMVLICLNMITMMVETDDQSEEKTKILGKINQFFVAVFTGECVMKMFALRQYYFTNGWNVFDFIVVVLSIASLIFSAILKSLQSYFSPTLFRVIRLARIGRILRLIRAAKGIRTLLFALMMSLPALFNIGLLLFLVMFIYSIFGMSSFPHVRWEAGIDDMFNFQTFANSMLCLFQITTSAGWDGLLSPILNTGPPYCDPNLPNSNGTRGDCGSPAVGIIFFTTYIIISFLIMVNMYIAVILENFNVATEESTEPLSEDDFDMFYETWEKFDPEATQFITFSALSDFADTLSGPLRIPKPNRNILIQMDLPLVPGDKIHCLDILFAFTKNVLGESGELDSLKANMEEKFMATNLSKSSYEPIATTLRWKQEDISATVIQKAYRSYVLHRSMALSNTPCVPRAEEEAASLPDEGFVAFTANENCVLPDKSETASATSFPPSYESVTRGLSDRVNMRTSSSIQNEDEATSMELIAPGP

SMILES	pIC50
O=C1NC[C@@H](C(=O)NC(c2ccc(Cl)cc2)c2ccnc(C(F)(F)F)c2)O1 (stereo partly drawn) [Example 34]	7.03
O=C1NC[C@@H](C(=O)NC(c2ccc(Cl)cc2)c2ccc(OC(F)F)nc2)O1 (stereo partly drawn) [Example 36, (5S)-N-((4-chlorophenyl)(6-(difluoromethoxy)pyridin-3-yl)methyl)-2-oxooxazolidine-5-carboxamide]	7.16
O=C1NC[C@@H](C(=O)NC(c2ccc(Cl)cc2)c2nc(C(F)(F)F)c[nH]2)O1 (stereo partly drawn) [Example 40, (5S)-N-((4-chlorophenyl)(4-(trifluoromethyl)-1H-imidazol-2-yl)methyl)-2-oxooxazolidine-5-carboxamide]	6.40
CC(NC(=O)[C@@H]1CNC(=O)O1)(c1ccc(Cl)cc1)c1ccc(Cl)cc1 [Example 41, (S)-N-(1,1-bis(4-chlorophenyl)ethyl)-2-oxooxazolidine-5-carboxamide]	6.42
O=C1NC[C@@H](C(=O)NC(c2ccc(Cl)cc2)C2CCCCCC2)O1 (stereo partly drawn) [Example 45, (5S)-N-((4-chlorophenyl)(cyclo-heptyl)methyl)-2-oxooxazolidine-5-carboxamide]	7.06
O=C1NC[C@@H](C(=O)NC(c2ccc(C(F)(F)F)nc2)c2csc(C(F)(F)F)n2)O1 (stereo partly drawn) [Example 64, (5S)-2-oxo-N-((6-(trifluoromethyl)pyridin-3-yl)(2-(trifluoromethyl)thiazol-4-yl)methyl)oxazolidine-5-carboxamide]	6.89
O=C1NC[C@@H](C(=O)NC(COc2ccc(C(F)(F)F)nc2)c2ccc(F)c(Cl)c2)O1 (stereo partly drawn) [Example 66, (5S)-N-(1-(3-chloro-4-fluorophenyl)-2-((6-(trifluoro-methyl)pyridin-3-yl)oxy)ethyl)-2-oxooxazolidine-5-carboxamide]	6.57
O=C1NC[C@@H](C(=O)NC(Cc2ccc(Cl)cc2)c2ccc(OC(F)(F)F)cc2)O1 (stereo partly drawn) [Example 68, (5S)-N-(2-(4-chlorophenyl)-1-(4-(trifluoromethoxy)phenyl)ethyl)-2-oxooxazolidine-5-carboxamide]	6.61

Compounds with a higher pIC50, results first:

pIC50	SMILES
7.68	O=C1NC[C@@H](C(=O)NC(CC2CCCCC2)c2ccc(F)c(Cl)c2F)O1 (stereo partly drawn) [Example 67, (S)-N-(1-(3-chloro-2,4-difluorophenyl)-2-cyclohexylethyl)-2-oxooxazolidine-5-carboxamide]
8.41	O=C1NC[C@@H](C(=O)NC(c2ccc(Cl)cc2)c2ccc3ccccc3c2)O1 (stereo partly drawn) [Example 31, (5S)-N-((4-chlorophenyl) (naphthalen-2-yl)methyl)-2-oxooxazolidine-5-carboxamide]
8.62	O=C1NC[C@@H](C(=O)NC(c2ccc(Cl)cc2)c2cccc3ccccc23)O1 (stereo partly drawn) [Example 30, (5S)-N-((4-chlorophenyl) (naphthalen-1-yl)methyl)-2-oxooxazolidine-5-carboxamide]
8.68	O=C1NC[C@@H](C(=O)NC(c2ccc(F)c(Cl)c2)c2ccc(F)c(C(F)(F)F)n2)O1 (stereo partly drawn) [Example 38, (5S)-N-((3-chloro-4-fluorophenyl)(5-fluoro-6-(trifluoromethyl)pyridin-2-yl)methyl)-2-oxooxazolidine-5-carboxamide]
